Experimental data from patent publication US11026984B2, “Use of isothiocyanate derivatives as modulators of peripheral and neuropathic pain” (Indena S.P.A., priority 2015, dated 2021).

Test system: oxaliplatin induced hyperalgesia in the mouse
Experiment: Cold plate test, oxaliplatin induced hyperalgesia in mice
Type: in vivo
Settings: for Licking latency, 15 min after treatment / Licking latency, 30 min after treatment / Licking latency, 45 min after treatment / Licking latency, 60 min after treatment: day 14, oxaliplatin-treated mice; for Licking latency, Pre-test (48 hrs after last oxaliplatin adm.): baseline before treatment, oxaliplatin 2.4 mg/kg i.p., mean of 10 mice
Experimental: The acute oral effect of Moringa oleifera L. seeds extract and purified GMG and GMG-ITC on oxaliplatin induced hyperalgesia in mice (Cold plate test) were evaluated.
The method utilized is a modification of that described by Cavalletti et al. (Cavalletti G. et al., Eur. J. Cancer 37(18), 2457, 2001). Oxaliplatin (2.4 mg/kg) was dissolved in 5% glucose solution and administered i.p. for 5 consecutive days every week for 14 days. On day 14, the test products were suspended in 1% CMC and administered orally. Pregabalin was used, in the same experimental conditions, as a reference active compound at the dose of 15 mg/kg s.c. dissolved in saline.
Pain-related behavior (i.e. lifting and licking of the hind paw) were observed and the time (seconds) of the first sign was recorded.

[1] = group later given 10 mg kg^-1 orally

Row | Structure (SMILES) | Licking latency, 15 min after treatment (10 mg kg^-1 oral, acute) | Licking latency, 30 min after treatment (10 mg kg^-1 oral, acute) | Licking latency, 45 min after treatment (10 mg kg^-1 oral, acute) | Licking latency, 60 min after treatment (10 mg kg^-1 oral, acute) | Licking latency, Pre-test (48 hrs after last oxaliplatin adm.) [1] | Licking latency, 15 min after treatment (15 mg kg^-1 s.c.) | Licking latency, 30 min after treatment (15 mg kg^-1 s.c.) | Licking latency, 45 min after treatment (15 mg kg^-1 s.c.) | Licking latency, 60 min after treatment (15 mg kg^-1 s.c.) | Licking latency, Pre-test (48 hrs after last oxaliplatin adm.) (group later given 15 mg kg^-1 s.c.)
1 | C[C@@H]1O[C@@H](Oc2ccc(C/C(=N/OS(=O)(=O)O)S[C@@H]3O[C@H](CO)[C@@H](O)[C@H](O)[C@H]3O)cc2)[C@H](O)[C@H](O)[C@H]1O [GMG, 4-(α-L-rhamnosyloxy)-benzyl glucosinolate] | 21.1 ± 1.9^^ s | 16.2 ± 0.7^ s | 15.1 ± 1.3^ s | 13.5 ± 2.3 s | 10.3 ± 0.5 s |  |  |  |  | 
2 | C[C@@H]1O[C@@H](Oc2ccc(CN=C=S)cc2)[C@H](O)[C@H](O)[C@H]1O [GMG-ITC, 4-(α-L-rhamnosyloxy)-benzyl isothiocyanate] | 20.9 ± 1.8^^ s | 16.0 ± 0.6^ s | 15.0 ± 1.2^ s | 13.3 ± 2.1 s | 10.2 ± 0.4 s |  |  |  |  | 
3 | CC(C)C[C@H](CN)CC(=O)O [pregabalin, reference compound] |  |  |  |  |  | 19.9 ± 1.9^ s | 16.1 ± 0.6^ s | 14.9 ± 1.3^ s | 13.1 ± 2.0 s | 11.0 ± 0.7 s
